{"source": "PubChem BioAssay AID2060610", "about": "(Molecular Pharmacology Branch, DTP, NCI, 2025);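 further: spheroids exposed to agents for 7 days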;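 on viability, T/C: 100% = DMSO vehicle wells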", "system": "616215-338-R-J1-PDC complex spheroids, viability % test/control", "assay": "Anticancer human tumor 616215-338-R-J1-PDC patient-derived colon adenocarcinoma cell line growth inhibition [CLK]", "settings": "for IC50: curve of first compound; for viability, T/C: stronger effect = lower value", "how_it_was_run": "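Multi-cell-type spheroids combined patient-derived tumor cells with HUVEC endothelial cells and human mesenchymal stem cells. Paired agents were dosed in half-log steps down from about clinical Cmax, or from 10 microM where Cmax was unknown.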"}
{"smiles": "CC(Nc1ccc2c(c1)OCCn1cc(N3C(=O)OCC3C(F)F)nc1-2)C(N)=O", "note": "(configuration not stated) + CNC(=O)c1ccc(Nc2nc(OC3CCCC3)c3c(-c4ccc5nc(C)oc5c4)c[nH]c3n2)c(OC)c1", "values": [{"measurement": "IC50", "setting": "second compound 0.0316 µM", "result": "> 10000", "unit": "nM"}, {"measurement": "IC50", "setting": "second compound 0.1 µM", "result": 3810, "unit": "nM"}, {"measurement": "IC50", "setting": "second compound 0.316 µM", "result": "< 31.6", "unit": "nM"}, {"measurement": "IC50", "setting": "second compound 1 µM", "result": "< 31.6", "unit": "nM"}, {"measurement": "IC50", "setting": "second compound 3.16 µM", "result": "< 31.6", "unit": "nM"}, {"measurement": "IC50", "setting": "second compound 10 µM", "result": "< 31.6", "unit": "nM"}, {"measurement": "viability, T/C", "setting": "second compound 0.0316 µM, first compound 0.0316 µM", "result": 95.8, "unit": "%"}, {"measurement": "viability, T/C", "setting": "second compound 0.0316 µM, first compound 0.1 µM", "result": 106, "unit": "%"}, {"measurement": "viability, T/C", "setting": "second compound 0.0316 µM, first compound 0.316 µM", "result": 100, "unit": "%"}, {"measurement": "viability, T/C", "setting": "second compound 0.0316 µM, first compound 1 µM", "result": 104, "unit": "%"}, {"measurement": "viability, T/C", "setting": "second compound 0.0316 µM, first compound 3.16 µM", "result": 104, "unit": "%"}, {"measurement": "viability, T/C", "setting": "second compound 0.0316 µM, first compound 10 µM", "result": 90.3, "unit": "%"}, {"measurement": "viability, T/C", "setting": "second compound 0.1 µM, first compound 0.0316 µM", "result": 52.5, "unit": "%"}, {"measurement": "viability, T/C", "setting": "second compound 0.1 µM, first compound 0.1 µM", "result": 65.9, "unit": "%"}, {"measurement": "viability, T/C", "setting": "second compound 0.1 µM, first compound 0.316 µM", "result": 51.7, "unit": "%"}, {"measurement": "viability, T/C", "setting": "second compound 0.1 µM, first compound 1 µM", "result": 56.2, "unit": "%"}, {"measurement": "viability, T/C", "setting": "second compound 0.1 µM, first compound 3.16 µM", "result": 51.5, "unit": "%"}, {"measurement": "viability, T/C", "setting": "second compound 0.1 µM, first compound 10 µM", "result": 42.1, "unit": "%"}, {"measurement": "viability, T/C", "setting": "second compound 0.316 µM, first compound 0.0316 µM", "result": 38.8, "unit": "%"}, {"measurement": "viability, T/C", "setting": "second compound 0.316 µM, first compound 0.1 µM", "result": 34.2, "unit": "%"}, {"measurement": "viability, T/C", "setting": "second compound 0.316 µM, first compound 0.316 µM", "result": 37.6, "unit": "%"}, {"measurement": "viability, T/C", "setting": "second compound 0.316 µM, first compound 1 µM", "result": 25.4, "unit": "%"}, {"measurement": "viability, T/C", "setting": "second compound 0.316 µM, first compound 3.16 µM", "result": 26.1, "unit": "%"}, {"measurement": "viability, T/C", "setting": "second compound 0.316 µM, first compound 10 µM", "result": 21.9, "unit": "%"}, {"measurement": "viability, T/C", "setting": "second compound 1 µM, first compound 0.0316 µM", "result": 33, "unit": "%"}, {"measurement": "viability, T/C", "setting": "second compound 1 µM, first compound 0.1 µM", "result": 32.5, "unit": "%"}, {"measurement": "viability, T/C", "setting": "second compound 1 µM, first compound 0.316 µM", "result": 26.4, "unit": "%"}, {"measurement": "viability, T/C", "setting": "second compound 1 µM, first compound 1 µM", "result": 23.3, "unit": "%"}, {"measurement": "viability, T/C", "setting": "second compound 1 µM, first compound 3.16 µM", "result": 16.4, "unit": "%"}, {"measurement": "viability, T/C", "setting": "second compound 1 µM, first compound 10 µM", "result": 14.8, "unit": "%"}, {"measurement": "viability, T/C", "setting": "second compound 3.16 µM, first compound 0.0316 µM", "result": 35.2, "unit": "%"}, {"measurement": "viability, T/C", "setting": "second compound 3.16 µM, first compound 0.1 µM", "result": 25.9, "unit": "%"}, {"measurement": "viability, T/C", "setting": "second compound 3.16 µM, first compound 0.316 µM", "result": 21.7, "unit": "%"}, {"measurement": "viability, T/C", "setting": "second compound 3.16 µM, first compound 1 µM", "result": 17.4, "unit": "%"}, {"measurement": "viability, T/C", "setting": "second compound 3.16 µM, first compound 3.16 µM", "result": 17, "unit": "%"}, {"measurement": "viability, T/C", "setting": "second compound 3.16 µM, first compound 10 µM", "result": 12.4, "unit": "%"}, {"measurement": "viability, T/C", "setting": "second compound 10 µM, first compound 0.0316 µM", "result": 28, "unit": "%"}, {"measurement": "viability, T/C", "setting": "second compound 10 µM, first compound 0.1 µM", "result": 28.8, "unit": "%"}, {"measurement": "viability, T/C", "setting": "second compound 10 µM, first compound 0.316 µM", "result": 21.9, "unit": "%"}, {"measurement": "viability, T/C", "setting": "second compound 10 µM, first compound 1 µM", "result": 17.7, "unit": "%"}, {"measurement": "viability, T/C", "setting": "second compound 10 µM, first compound 3.16 µM", "result": 17, "unit": "%"}, {"measurement": "viability, T/C", "setting": "second compound 10 µM, first compound 10 µM", "result": 12.8, "unit": "%"}]}
